Data from ChEMBL document CHEMBL6103664, “Novel Pyrimidinyl Sulfonamide Derivatives as GPR17 Modulators” (ACS Med Chem Lett, 2025).

How the values were obtained:
Assay type in all cases: ADME, Microsome
Details in all cases: time 55 min
[1] = Clearance in human microsomes assessed per mg protein at 1 uM preincubated for 10 mins followed by NADPH addition and measured after 1 to 45 mins by LC-MS/MS analysis
[2] = Clearance in rat microsomes assessed per mg protein at 1 uM preincubated for 10 mins followed by NADPH addition and measured after 1 to 45 mins by LC-MS/MS analysis
[3] = Clearance in mouse microsomes assessed per mg protein at 1 uM preincubated for 10 mins followed by NADPH addition and measured after 1 to 45 mins by LC-MS/MS analysis

Compound | microsomal CLint at 1 µM [1] [µL/min/mg] | microsomal CLint at 1 µM [2] [µL/min/mg] | microsomal CLint at 1 µM [3] [µL/min/mg]
COc1nc(NS(=O)(=O)c2c[nH]c(-c3ncccc3F)c2)nc(OC)c1OCCF | 10 | 32 | 12
COc1nc(NS(=O)(=O)c2c[nH]c(-c3nccs3)c2)nc(OC)c1OC(F)F | 10 | 50 | 10
COc1nc(NS(=O)(=O)c2c[nH]c(-c3ccccc3)c2)nc(OC)c1OCC(F)F | 10 | 81 | 21
